Experimental findings from PMC9995911, “Lipid environment determines the drug-stimulated ATPase activity of P-glycoprotein” (Frontiers in Molecular Biosciences, 2023) are described below.

The target in one series is T1, Pgp (Mus musculus, UniProt P21447).
T1 construct: made in house; host or cells: Pichia pastoris
Description: Thermostability of purified Pgp in detergent solution (CPM dye fluorescence on heating). Particulars: Pgp purified in 0.05% DDM containing 0.01% CHS (DDM/CHS); Pgp in DDM alone ~40 °C. The protocol:
Figure S1: CHS increases the thermostability of purified Pgp in DDM detergent solution.
Pgp was purified from microsomal membranes as detailed in Methods in either 0.05% DDM or 0.05% DDM containing 0.01% CHS (DDM/CHS). Samples were incubated with 2 µM of the cysteine-reactive dye 7-Diethylamino-3-(4'-maleimidylphenyl)-4-methylcoumarin (CPM), and the increase in fluorescence upon heating the samples with a temperature ramp of 1 °C/min was monitored with excitation/ emission wavelengths of 384/470 nm. Increase in fluorescence is due to protein unfolding and exposure of reactive cysteines in Pgp. The melting temperature Tm was ~40 °C for Pgp in DDM solution, similar to that reported for Pgp by other methods (Yang et al., […]
2017). […] Representatives of three independent experiments are shown.
(1 picture or pasted object on this page, not shown here)

The target of another series is T2, Mouse mdr1a Pgp (Mus musculus, UniProt P21447).
T2 construct: made in house; host or cells: Pichia pastoris
T2 sequence (P21447 whole entry): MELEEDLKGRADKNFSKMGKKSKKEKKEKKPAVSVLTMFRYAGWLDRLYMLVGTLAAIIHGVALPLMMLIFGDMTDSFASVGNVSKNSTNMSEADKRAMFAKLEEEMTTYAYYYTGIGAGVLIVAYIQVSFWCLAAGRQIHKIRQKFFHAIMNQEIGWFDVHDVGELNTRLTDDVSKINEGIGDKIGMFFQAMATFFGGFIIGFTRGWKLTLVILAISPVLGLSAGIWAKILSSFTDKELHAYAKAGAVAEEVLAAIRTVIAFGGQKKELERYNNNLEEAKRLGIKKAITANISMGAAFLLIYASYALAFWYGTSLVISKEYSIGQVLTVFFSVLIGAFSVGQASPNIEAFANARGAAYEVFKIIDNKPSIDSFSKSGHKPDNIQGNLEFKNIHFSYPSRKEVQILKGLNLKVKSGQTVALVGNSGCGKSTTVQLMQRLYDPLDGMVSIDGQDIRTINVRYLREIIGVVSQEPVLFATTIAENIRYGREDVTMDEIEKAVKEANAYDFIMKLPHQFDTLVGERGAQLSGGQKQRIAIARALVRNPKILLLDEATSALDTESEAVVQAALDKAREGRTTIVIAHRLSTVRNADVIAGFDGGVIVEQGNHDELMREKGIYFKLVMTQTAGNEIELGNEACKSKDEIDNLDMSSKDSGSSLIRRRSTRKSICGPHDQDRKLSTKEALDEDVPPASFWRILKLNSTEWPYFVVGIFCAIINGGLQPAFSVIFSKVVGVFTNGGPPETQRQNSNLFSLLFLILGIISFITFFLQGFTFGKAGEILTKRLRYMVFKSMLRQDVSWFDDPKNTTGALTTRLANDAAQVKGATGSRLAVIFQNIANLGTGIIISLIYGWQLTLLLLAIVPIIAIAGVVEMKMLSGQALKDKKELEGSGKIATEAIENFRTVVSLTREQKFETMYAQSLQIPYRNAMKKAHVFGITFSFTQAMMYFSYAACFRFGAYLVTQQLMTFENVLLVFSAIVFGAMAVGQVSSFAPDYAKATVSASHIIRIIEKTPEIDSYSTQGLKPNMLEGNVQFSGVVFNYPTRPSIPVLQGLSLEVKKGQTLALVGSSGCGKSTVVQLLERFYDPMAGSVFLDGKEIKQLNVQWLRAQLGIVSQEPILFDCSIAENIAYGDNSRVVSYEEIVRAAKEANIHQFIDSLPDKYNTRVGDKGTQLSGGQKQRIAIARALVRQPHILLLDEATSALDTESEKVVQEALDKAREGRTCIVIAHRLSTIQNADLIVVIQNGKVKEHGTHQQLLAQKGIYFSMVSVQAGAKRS
The experiment in a line: Verapamil-stimulated ATPase activity of purified Pgp in DDM detergent activated with lipids (detergent-lipid micelles). In kind it is biochemical. The conditions noted are these: ATPase in the absence of verapamil; Pgp in DDM activated with 1% of the named lipid (Table 2). The protocol: All purification buffers contained 50 mM Tris pH 8, 10% glycerol, and 500 mM NaCl (Buffer A). Detergent concentrations were reduced to 0.05% DDM during chromatography. Pgp was eluted from the Strep-Tactin superflow resin (Qiagen, Valencia, CA) in the presence of 1 mM DTT, 1 mM TCEP by competition with 4 mM desthiobiotin.

T1 sequence (P21447 whole entry): as above

Turning to `CC(C)CCC[C@@H](C)[C@H]1CC[C@H]2[C@@H]3CC=C4C[C@@H](OC(=O)CCC(=O)O)CC[C@]4(C)[C@H]3CC[C@]12C` [CHS, cholesteryl hemisuccinate], at Pgp, the “melting temperature Tm of Pgp” value is 52 ºC. Take `CCCCCCCC/C=C\CCCCCCCC(=O)O[C@H](COC(=O)CCCCCCCCCCCCCCC)COP(=O)([O-])OCC[N+](C)(C)C` [POPC only, 1-palmitoyl-2-oleoyl-sn-glycero-3-phosphocholine]: the Basal activity at Mouse mdr1a Pgp is reported as 0.05 µmol/min/mg.
